Where “and” joins values, the source holds several entries; their conditions need not be identical. Identical values can stand only once.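 1) Cells in 96-well plates. 2) Compound, 48 h, 5 concentrations. 3) Linear interpolation between surrounding doses. 4) Unreached endpoint = highest concentration. GI50 marks 50% less growth. The concentration for full growth arrest is given as TGI.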 Some results are limits rather than exact numbers.

Among the test systems are COLO 205 colon; DU-145 prostate; NCI-H522 lung; OVCAR-3 ovarian; OVCAR-4 ovarian; SF-268 CNS; SK-MEL-2 melanoma; SK-MEL-5 melanoma; SK-OV-3 ovarian; TK-10 renal.
What all share (assay): DTP human tumour cell line panel, 48 h

The GI50 is the concentration giving 50% growth inhibition. A word on the TGI: it is the concentration giving total growth inhibition. A higher TGI goes with lower sensitivity of the cells. Consider `CCCCN(CCCC)c1ccc(C(=NC(C)CCCN(CC)CC)c2ccc(N(C)C)cc2)cc1` (stereo not drawn), for which the GI50 in the assay on COLO 205 colon is 0.85 µM; in the assay with DU-145 prostate it was 1.57 µM; with NCI-H522 lung it was 0.706 µM; with OVCAR-3 ovarian, 0.846 µM; in the assay on OVCAR-4 ovarian, 1.09 µM; with SF-268 CNS it was 0.864 µM. For the same compound, the GI50 in the assay with SK-MEL-2 melanoma is 0.814 µM; in the assay with SK-MEL-5 melanoma it was 0.806 µM; with SK-OV-3 ovarian, 1.14 µM; with TK-10 renal, 1.34 µM. The TGI in the assay on COLO 205 colon is 1.69 µM; with DU-145 prostate, 6.04 µM; in the assay on NCI-H522 lung it was 1.56 µM; in the assay with OVCAR-3 ovarian, 1.81 µM; in the assay with OVCAR-4 ovarian it was 3.34 µM; in the assay on SF-268 CNS it was 2.06 µM. The TGI in the assay on SK-MEL-2 melanoma is 1.81 µM; in the assay with SK-MEL-5 melanoma, 1.5 µM; in the assay on SK-OV-3 ovarian, 2.33 µM; in the assay with TK-10 renal it was 3.99 µM.
Take `Cn1ccnc1C(=O)/C=C/c1ccc(CC(=O)Nc2ccc(C(F)(F)F)cc2)cc1`: the GI50 in the assay on COLO 205 colon is 3.17 µM; in the assay with DU-145 prostate, 2.97 µM; in the assay with NCI-H522 lung it was 3.35 µM; in the assay with OVCAR-3 ovarian, 2.95 µM; with OVCAR-4 ovarian, 3.1 µM; in the assay on SF-268 CNS, 3.03 µM. Moreover, the GI50 in the assay on SK-MEL-2 melanoma was 4.95 µM; in the assay on SK-MEL-5 melanoma it was 3.83 µM; with SK-OV-3 ovarian, 6.6 µM; in the assay with TK-10 renal, 5 µM. In addition, the TGI in the assay with COLO 205 colon was 6.17 µM; in the assay with DU-145 prostate it was 6.42 µM; in the assay on NCI-H522 lung it was 6.39 µM; in the assay with OVCAR-3 ovarian, 6.88 µM; in the assay on OVCAR-4 ovarian, greater than 16.7 µM; in the assay with SF-268 CNS, 7.88 µM. In addition, the TGI is 11.3 µM in the assay with SK-MEL-2 melanoma, 11.2 µM in the assay on SK-MEL-5 melanoma, greater than 16.7 µM with SK-OV-3 ovarian and 15.3 µM in the assay on TK-10 renal.
On to `Cc1ccc2c(c1)C(=O)c1c-2n(CCCBr)c(=O)c2cc([N+](=O)[O-])ccc12`, for which the GI50 in the assay with COLO 205 colon was 87.4 µM; with DU-145 prostate it was 49.8 µM; with NCI-H522 lung, 12.2 µM; in the assay with OVCAR-3 ovarian, 71.1 µM; with OVCAR-4 ovarian, greater than 100 µM; in the assay with SF-268 CNS it was 46.9 µM. Besides, the GI50 with SK-MEL-2 melanoma was greater than 100 µM; with SK-MEL-5 melanoma, 33 µM; in the assay on SK-OV-3 ovarian, greater than 100 µM; in the assay on TK-10 renal, greater than 100 µM. Also, the TGI in the assay on COLO 205 colon was greater than 100 µM; with DU-145 prostate, greater than 100 µM; in the assay on NCI-H522 lung it was 96.2 µM; with OVCAR-3 ovarian, greater than 100 µM; in the assay on OVCAR-4 ovarian it was greater than 100 µM; in the assay on SF-268 CNS it was greater than 100 µM. For the same compound, the TGI in the assay with SK-MEL-2 melanoma, with SK-MEL-5 melanoma, in the assay with SK-OV-3 ovarian and in the assay on TK-10 renal was greater than 100 µM throughout.
For the compound `COc1cc(C(=O)/C=C/c2cccnc2Nc2ccccc2)cc(OC)c1OC`, the GI50 in the assay on COLO 205 colon is 1.29 µM; in the assay with DU-145 prostate it was 0.723 µM; in the assay on NCI-H522 lung, 0.493 µM; with OVCAR-3 ovarian, 0.429 µM; with OVCAR-4 ovarian, 1.45 µM; in the assay with SF-268 CNS it was 1.55 µM. Further, the GI50 was 1.66 µM with SK-MEL-2 melanoma, 1.34 µM in the assay on SK-MEL-5 melanoma, 1.6 µM with SK-OV-3 ovarian and 1.82 µM in the assay with TK-10 renal. Moreover, the TGI turned out to be 2.62 µM with COLO 205 colon; 1.94 µM in the assay on DU-145 prostate; 1.76 µM in the assay on NCI-H522 lung; 1.48 µM in the assay on OVCAR-3 ovarian; 2.76 µM with OVCAR-4 ovarian; 3.09 µM with SF-268 CNS. Further, the TGI is 3.4 µM in the assay on SK-MEL-2 melanoma, 2.64 µM with SK-MEL-5 melanoma, 2.94 µM in the assay on SK-OV-3 ovarian and 3.33 µM with TK-10 renal.
Take `c1ccc(P(CCP(CCP(c2ccccc2)c2ccccc2)c2ccccc2)CCP(c2ccccc2)c2ccccc2)cc1` (stereo not drawn): the GI50 was > 10 µM and 2.08 µM in the assay with COLO 205 colon; greater than 10 µM with OVCAR-3 ovarian; > 10 µM and 3.71 µM in the assay on SF-268 CNS; > 10 µM and 4.12 µM with SK-MEL-5 melanoma. For the same compound, the TGI is greater than 10 µM in the assay on COLO 205 colon; greater than 10 µM with DU-145 prostate; 5.13 µM in the assay on NCI-H522 lung; greater than 10 µM in the assay on OVCAR-3 ovarian; greater than 10 µM in the assay on OVCAR-4 ovarian; greater than 10 µM in the assay on SF-268 CNS. The TGI in the assay with SK-MEL-2 melanoma, in the assay on SK-MEL-5 melanoma, with SK-OV-3 ovarian and in the assay on TK-10 renal was greater than 10 µM in each case.
Consider `Nc1nc(N)c(N=O)c(OCC2CCCCC2)n1`, for which the GI50 in the assay with COLO 205 colon is 15.1 µM; in the assay with DU-145 prostate, 5.93 µM; in the assay on NCI-H522 lung, 10 µM; in the assay on OVCAR-3 ovarian, 7.37 µM; in the assay on OVCAR-4 ovarian, 6.03 µM; in the assay on SF-268 CNS, 5.82 µM. Also, the GI50 with SK-MEL-2 melanoma was 8.52 µM; in the assay with SK-MEL-5 melanoma, 13.7 µM; with SK-OV-3 ovarian it was 27.9 µM; with TK-10 renal, 15.9 µM. Also, the TGI in the assay on COLO 205 colon is 37.4 µM and 33.8 µM; in the assay on DU-145 prostate it was greater than 100 µM; in the assay on NCI-H522 lung it was > 73.3 µM and 50.7 µM; in the assay on OVCAR-3 ovarian it was 64.7 µM and 61.5 µM; in the assay with OVCAR-4 ovarian, greater than 75.5 µM; in the assay with SF-268 CNS it was greater than 95.4 µM. For the same compound, the TGI with SK-MEL-2 melanoma was 32.8 µM and 24.6 µM; in the assay with SK-MEL-5 melanoma, 60 µM and 42 µM; in the assay with SK-OV-3 ovarian, > 80.9 µM and 74.3 µM; in the assay with TK-10 renal, 57 µM and 34.5 µM.
Take `C/C=C/[C@@H]1OC(=O)C2=C[C@@H](O)[C@@H](/C=C/C)O[C@H]21`: the GI50 is 2.2 µM in the assay with COLO 205 colon; 0.989 µM with DU-145 prostate; 1.93 µM in the assay on NCI-H522 lung; 2.45 µM in the assay on OVCAR-3 ovarian; 6.96 µM with OVCAR-4 ovarian; 24.1 µM in the assay on SF-268 CNS. Further, the GI50 with SK-MEL-2 melanoma is 23.5 µM; in the assay on SK-MEL-5 melanoma, 9.03 µM; with SK-OV-3 ovarian, 20.5 µM; with TK-10 renal, 1.96 µM. The TGI in the assay with COLO 205 colon was 6.9 µM; with DU-145 prostate, 4.83 µM; with OVCAR-3 ovarian it was 13.1 µM; in the assay with OVCAR-4 ovarian it was 27.8 µM; with SF-268 CNS, greater than 82.5 µM; with SK-MEL-2 melanoma, greater than 58.6 µM. In addition, the TGI turned out to be 23.8 µM with SK-MEL-5 melanoma, 36.6 µM in the assay with SK-OV-3 ovarian and 7.04 µM with TK-10 renal.
